Data as given in patent US20250255856A1, “THERAPEUTIC COMPOSITIONS WITH IMINO SUGARS FOR THE TREATMENT OF DISEASES WITH ACCUMULATION OF HEPARAN SULFATE” (priority 2022, published 2025).
Counter-ions that a name gives are not always drawn.

Assays:
[1] = system: fibroblasts of patients affected by Sanfilippo B (MPS IIIB); test: HS and Lamp1 immunofluorescence in Sanfilippo B patient fibroblasts; assay type: cell-based, human; conditions: 20 μM, 48 hours; for Cells positive for HS (%) / Cells positive for Lamp1 (%) / Relative fluorescence intensity compared to HDFa, HS / Relative fluorescence intensity compared to HDFa, Lamp1: MPS-IIIB fibroblasts; for Effect on HS and lysosome (Lamp1) accumulation, in words: Sanfilippo B (MPS IIIB) patient fibroblasts
Excerpt: (§1) To verify whether the selected iminosugars could exert the same effects also on the fibroblasts of patients affected by Sanfilippo disease, human adult dermal fibroblasts HDFa (purchased from Sigma-Aldrich) were used as control, and fibroblasts of patients affected by Sanfilippo A and B (MPS IIIA and IIIB) were used as disease model.
(§2) The human cell lines, fibroblasts, from patients with MPS (Sanfilippo disease) used in the examples were obtained from the G. Gaslini Institute of Genoa, “Cell Line and DNA Biobank from Patients Affected by Genetic Diseases”-Telethon Genetic Biobank Network—Telethon research service. These cells are classified with identification codes and by type of disease without allowing patient identification. Cells were collected from the patients, at the Gaslini Institute, with informed consent to the collection extended to conservation and its possible use, for diagnosis and/or research purposes according to current legislation as required by the guidelines followed by the Telethon biobanks. The Network operates abiding by the Italian Privacy and Data Protection Laws in force, including: Italian Data Protection Authority, Personal Data Protection Code, Legislative Decree no. 196, 30 Jun. 2003, published in Official Gazette No. 174 of the Italian Republic, 29 Jul. 2003; Italian Data Protection Authority, General Authorization for the processing of genetic data, 24 Jun. 2011, published in Official Gazette No. 159 of Italian Republic, 11 Jul. 2011.
(§3) Cells were cultured in the presence of the selected L-iminosugars at a dosage of 20 μM and after 48 hours were treated for HS and Lamp1 immunofluorescence. Treatment with L-iminosugars had no effect on control HDFa (Table 3).
(§4) Cells were grown in the presence of the iminosugars D-DNJ, D-NBDNJ, D-AMPDNM and D-MONDNJ at the dosage of 20 μM and after 48 hours were treated for HS and Lamp1 immunofluorescence. Treatment with D-iminosugars had no effect on HDFa and fibroblasts of patients affected by Sanfilippo A and B (MPS IIIA and MPS IIIB) both on HS and lysosome accumulation (Table 4).

[2] = system: HeLa tumor epithelial cells; test: HeLa cell proliferation assay; assay type: cell-based; conditions: after 48 hours
Procedure: Furthermore, treatment with the L-deoxyminosugars L-DNJ, L-NBDNJ, L-AMPDNM and L-MONDNJ caused a decrease of the number of HeLa cells after 48 hours as shown by the cell proliferation assay reported in Table 6.

[3] = system: NAGLU-silenced clone (cl5) of human neuroblastoma cell line SK-NBE; test: Immunofluorescence against beta-amyloid peptide 1-42 in NAGLU-silenced SK-NBE clone; assay type: cell-based; conditions: 20 μM, 48 hours
Procedure: The clone (c15) stably silenced for NAGLU, the causative gene of MPS IIIB, is able to mimic the features of neurodegenerative diseases as it accumulates beta-amyloid fibers in the cytoplasm. In fact, Sanfilippo Syndrome is also defined as “childhood Alzheimer”.
The diseased clone (c15) was grown in the presence of L-DNJ, L-NBDNJ, L-AMPDNM and L-MONDNJ and the corresponding enantiomers D-DNJ, D-NBDNJ, D-AMPDNM and D-MONDNJ at a dosage of 20 μM and after 48 hours were processed by immunofluorescence against the beta-amyloid peptide 1-42. […] On contrary, treatment with the corresponding D-enantiomers has no effect on the reduction of the accumulation of amyloid fibers compared to the untreated clone (mock) (Table 7).

[4] = system: fibroblasts of patients affected by Sanfilippo A (MPS IIIA); test: HS and Lamp1 immunofluorescence in Sanfilippo A patient fibroblasts; assay type: cell-based, human; conditions: 20 μM, 48 hours; for Cells positive for HS (%) / Cells positive for Lamp1 (%) / Relative fluorescence intensity compared to HDFa, HS / Relative fluorescence intensity compared to HDFa, Lamp1: MPS-IIIA fibroblasts; for Effect on HS and lysosome (Lamp1) accumulation, in words: Sanfilippo A (MPS IIIA) patient fibroblasts
Excerpt: as §1, §2, §3, §4

[5] = system: human adult dermal fibroblasts HDFa; test: HS and Lamp1 immunofluorescence in control fibroblasts HDFa; assay type: cell-based; conditions: 20 μM, 48 hours
Procedure: as §1, §3, §4

[6] = system: HeLa tumor epithelial cells; test: HS immunostaining in HeLa cells; assay type: cell-based; conditions: 48 hours
Procedure: To test whether treatment with the selected L-deoxyminosugars (L-DNJ, L-NBDNJ, L-AMPDNM and L-MONDNJ) could interfere with HS synthesis we selected a cell line not mutated for NAGLU and highly decorated by heparan sulfate on the cell membrane. For this purpose, HeLa tumor epithelial cells (purchased from ATCC) were cultured for 48 hours in the presence of the selected L-iminosugars and the amount of HS was evaluated by immunostaining.

[7] = system: NAGLU-silenced clone (cl5) of human neuroblastoma cell line SK-NBE; test: Heparan sulfate (HS) immunofluorescence in NAGLU-silenced SK-NBE clone, Sanfilippo B model; assay type: cell-based; conditions: 48 hours; for Cells positive for HS (%) / Relative HS fluorescence intensity: cl5 clone, 20 μM; for Effect on HS staining / HS accumulation, in words: clone 5, 20 μM
Excerpt: (§5) To study the effects of the compounds on the lysosomal dysfunctions in a neuronal model of Sanfilippo B disease (MPS IIIB), we recently generated stable clones of the human neuroblastoma cell line SK-NBE silenced for the NAGLU gene causative of MPS IIIB [De Pasquale V, et al. (2021). Biochim Biophys Acta Mol Cell Res. 1868, 119113.]. Mimicking the features of Sanfilippo B disease, silencing of NAGLU causes accumulation of heparan sulfate and accumulation of lysosomes in the cytoplasm of stable SK-NBE clones compared to the control (WT) clone.
Clone 5 was grown in the presence of 20 μM of each L-iminosugar under normal growth conditions and after 48 hours the accumulation of heparan sulfate (HS) was evaluated by immunofluorescence staining for HS.

[8] = system: NAGLU-silenced clone (cl5) of human neuroblastoma cell line SK-NBE; test: Lamp1 immunofluorescence (lysosomal accumulation) in NAGLU-silenced SK-NBE clone, Sanfilippo B model; assay type: cell-based; conditions: 48 hours; for Cells positive for Lamp1 (%) / Relative Lamp1 fluorescence intensity: cl5 clone, 20 μM; for Effect on lysosomal enlargement and accumulation (lysosomal phenotype), in words: clone 5, 20 μM
Excerpt: as §5
(§6) Therefore, NAGLU-silenced clone (c15) and control clone (WT) were selected to test the effect of L-deoxyminosugars (L-DNJ, L-NBDNJ, L-NNDNJ, L-HPDNJ, L-NPDNJ, L-AMPDNM and L-MONDNJ) in the hydrochloride form on the lysosomal phenotype of our cell model of Sanfilippo B (MPS IIIB).
(§7) Clone 5 was cultured in the presence of 20 μM of each L-deoxyminosugar under normal growth conditions and after 48 hours the lysosomal accumulation was evaluated with immunofluorescence technique by using a specific antibody against Lamp1 (lysosomal marker). […] Furthermore, upon treatment with the active L-deoxyminosugar the lysosomes are no longer concentrated in the perinuclear region of the cells, as occurs in several lysosomal diseases, but they are physiologically distributed throughout the cytoplasm.

[9] = system: control clone (WT) of human neuroblastoma cell line SK-NBE; test: Lamp1 immunofluorescence in control (WT) SK-NBE clone; assay type: cell-based; conditions: 20 μM, 48 hours
Excerpt: as §5, §6, §7

[10] = system: control clone (WT) of human neuroblastoma cell line SK-NBE; test: Heparan sulfate (HS) immunofluorescence in control (WT) SK-NBE clone; assay type: cell-based; conditions: 20 μM, 48 hours

SMILES | Cell number [2] | Relative amyloid fluorescence intensity [3] | Relative fluorescence intensity compared to HDFa, HS [1] | Relative fluorescence intensity compared to HDFa, Lamp1 [1] | Effect on HS and lysosome (Lamp1) accumulation, in words [1] | Effect on HS accumulation on the HeLa cell membrane, in words [6] | Relative HS fluorescence intensity [6] | Cells positive for HS (%) [7] [%] | Relative HS fluorescence intensity [7] | Effect on HS staining / HS accumulation, in words [7] | Cells positive for Lamp1 (%) [8] [%] | Relative Lamp1 fluorescence intensity [8] | Effect on lysosomal enlargement and accumulation (lysosomal phenotype), in words [8] | Cells positive for Lamp1 (%) [9] [%] | Relative Lamp1 fluorescence intensity [9] | Cells positive for HS (%) [10] [%] | Relative HS fluorescence intensity [10] | Relative fluorescence intensity compared to HDFa, HS [4] | Relative fluorescence intensity compared to HDFa, Lamp1 [4] | Effect on HS and lysosome (Lamp1) accumulation, in words [4] | further results
OC[C@@H]1[C@@H](O)[C@H](O)[C@@H](O)CN1CCCCCOCC12CC3CC(CC(C3)C1)C2 [D-AMPDNM•HCl] | 5.1 · 10^5 | 1.02 |  |  |  |  |  |  |  |  |  |  |  |  |  |  |  |  |  |  | Cells positive for HS (%) [1]: 96.4%; Cells positive for Lamp1 (%) [1]: 94.6%; Cells positive for HS (%) [4]: 98.7%; Cells positive for Lamp1 (%) [4]: 96.8%; Cells positive for HS (%) [5]: 4.9%; Cells positive for Lamp1 (%) [5]: 5.1%
OC[C@H]1NC[C@H](O)[C@@H](O)[C@@H]1O [D-DNJ•HCl, deoxynojirimycin] | 4.4 · 10^5 | 0.99 |  |  |  |  |  |  |  |  |  |  |  |  |  |  |  |  |  |  | Cells positive for HS (%) [1]: 94.9%; Cells positive for Lamp1 (%) [1]: 92.5%; Cells positive for HS (%) [4]: 97.3%; Cells positive for Lamp1 (%) [4]: 95.0%; Cells positive for HS (%) [5]: 2.4%; Cells positive for Lamp1 (%) [5]: 5.0%
COCCCCCCCCCN1C[C@H](O)[C@@H](O)[C@H](O)[C@H]1CO.Cl [D-MONDNJ•HCl] | 5.0 · 10^5 | 1.05 |  |  |  |  |  |  |  |  |  |  |  |  |  |  |  |  |  |  | Cells positive for HS (%) [1]: 95.8%; Cells positive for Lamp1 (%) [1]: 93.8%; Cells positive for HS (%) [4]: 99.2%; Cells positive for Lamp1 (%) [4]: 95.2%; Cells positive for HS (%) [5]: 5.0%; Cells positive for Lamp1 (%) [5]: 5.3%
OC[C@H]1[C@H](O)[C@@H](O)[C@H](O)CN1CCCCCOCC12CC3C[C@H](C1)C[C@H](C3)C2 [L-AMPDNM•HCl, N-adamantanomethoxypentyl L-DNJ] | 3.7 · 10^5 | 0.02 | 1.0 | 1.0 | strong reduction | strong reduction | 0.12 | 5.1 | 1.19 | dramatic reduction | 18 | 0.99 | dramatic reduction | 2.5 | 1.08 | 2.3 | 0.94 | 1.5 | 2.2 | strong reduction | Effect on the number of HeLa cells, in words [2]: decrease; Relative fluorescence intensity compared to HDFa, HS [5]: 1.0; Relative fluorescence intensity compared to HDFa, Lamp1 [5]: 1.0
CCCCCCOCCCCCN1C[C@@H](O)[C@H](O)[C@@H](O)[C@@H]1CO [L-HPDNJ•HCl] | 4.3 · 10^5 |  | 5.7 | 3.0 | did not show any activity | did not show any activity | 0.95 | 95.1 | 3.60 | did not show any activity | 87 | 2.10 | did not show any activity | 4.8 | 1.00 | 2.4 | 0.95 | 5.4 | 3.1 | did not show any activity | Relative fluorescence intensity compared to HDFa, HS [5]: 1.0; Relative fluorescence intensity compared to HDFa, Lamp1 [5]: 1.0
CCCCCCCCCN1C[C@@H](O)[C@H](O)[C@@H](O)[C@@H]1CO [L-NNDNJ•HCl] | 4.2 · 10^5 |  | 5.8 | 3.1 | did not show any activity | did not show any activity | 0.88 | 97.5 | 3.71 | did not show any activity | 85 | 2.70 | did not show any activity | 4.1 | 1.04 | 4.1 | 0.94 | 4.9 | 3.0 | did not show any activity | Relative fluorescence intensity compared to HDFa, HS [5]: 1.0; Relative fluorescence intensity compared to HDFa, Lamp1 [5]: 1.0
CCCCCCCCCOCCCCCN1C[C@@H](O)[C@H](O)[C@@H](O)[C@@H]1CO [L-NPDNJ•HCl] | 4.7 · 10^5 |  | 5.9 | 3.3 | did not show any activity | did not show any activity | 1.19 | 97.5 | 3.65 | did not show any activity | 84 | 2.65 | did not show any activity | 3.7 | 1.10 | 4.4 | 0.93 | 5.2 | 2.8 | did not show any activity | Relative fluorescence intensity compared to HDFa, HS [5]: 1.0; Relative fluorescence intensity compared to HDFa, Lamp1 [5]: 1.0
